# Laboratory results from patent US7470821B2, “Aldolase-inhibiting aromatic compounds” (Valorisation-Recherche, Limited Partnership, priority 2003, dated 2008).
# Changes are numbered by the printed parent chain. Read-outs that look alike come from different tables or passages of the source.
# Legend:
# K229M mutant RM aldolase = target: T1, K229M mutant RM aldolase (Oryctolagus cuniculus, UniProt P00883, K230M); assay: UV-visible differential spectroscopy (method A) with mutated aldolase K229M; format: binding, rabbit; settings: FHN-P 300 μM; for kapp: 431 nm
# T1 construct: made in house
# T1 sequence (P00883 1-364 K230M): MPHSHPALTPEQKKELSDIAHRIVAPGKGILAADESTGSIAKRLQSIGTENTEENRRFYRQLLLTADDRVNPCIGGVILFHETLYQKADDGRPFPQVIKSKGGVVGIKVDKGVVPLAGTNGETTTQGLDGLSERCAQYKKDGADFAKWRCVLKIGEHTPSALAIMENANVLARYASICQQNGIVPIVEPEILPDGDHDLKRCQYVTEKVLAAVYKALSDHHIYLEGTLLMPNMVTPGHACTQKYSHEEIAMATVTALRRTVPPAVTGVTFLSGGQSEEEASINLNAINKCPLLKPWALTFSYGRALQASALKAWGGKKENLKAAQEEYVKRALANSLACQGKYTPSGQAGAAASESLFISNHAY
# Procedure: For method A, absorption spectra are recorded as a function of time, between 250 and 500 nm, or at wavelengths corresponding to maximum or minimum absorption. Measurements are begun by adding FHN-P at varying final concentrations (0.1-1 mM) in the TEA buffer containing a fixed concentration of aldolase (10 μM of subunits). Measured absorption spectra for the enzyme complex are corrected using the absorbance of the buffer, the FHN—P, and the enzyme (measured separately). The differential absorption spectra thus obtained are used to calculate the value of the constants that define the formation of the aldolase-inhibitor complex.
# Every UV-visible differential test spectroscopy test using mutated aldolases (10 μM of subunits) is carried out using method A. • Monitored by Electrospray Ionization Mass Spectrometry (ESI-MS).
# Residues of lysine 106, 146 and 229 residues are located at the active aldolase sites and thus are candidates for causing inactivation by forming a Schiff base with the FHN-P. In order to identify which lysine is responsible for the differential absorbances in the presence of FHN-P, sporadic mutations of these lysine residues were created and named: K107M (Research Collaboratory for Structural Bioinformatics Protein Databank), K146M (Blonski C. et al., 1997, Biochem. J. 323:71-77) and […] (Research Collaboratory for Structural Bioinformatics Protein Databank). […] UV-visible differential spectroscopy (method A) was used to examine formation of the enzyme complex for each sporadic mutation in the presence of a fixed concentration of FHN-P (300 μM).
# [1] = target: T2, native aldolase from rabbit muscle (RM) (Oryctolagus cuniculus, UniProt P00883); assay: Aldolase activity by coupled enzyme test (TIM/GDH), inactivation and reactivation kinetics; format: biochemical; settings: for Specific activity: RM 0.2 mg/mL
# T2 construct: made in house
# T2 sequence (P00883 1-364): T1 sequence (P00883 1-364 K230M) with M230K
# Procedure: Aldolase activity was measured using a coupled enzyme test system: the triose-phosphate isomerase and glycerol-3-phosphate deshydrogenase (TIM/GDH) system, following oxidation of the NADH (Boehringer-Mannheim, France) at 340 nm, by means of a SAFAS spectrophotometer preheated to 25° C. Testing began with the addition of the substrate (Fru(1.6)P2; […] in final concentration), to complete an aldolase solution created in a triethanolamine buffer (TEA buffer) (100 Mm TEA/HCl; 50 mM NaCl; 1 mM EDTA, pH 7.6; ionic strength 0.15), 0.42 mM of NADH, and containing both enzyme systems (10 μg/mL of GDH and 1 μg/mL of TIM) for a final volume of 1 mL. The construction, overexpression and purification of recombinant aldolase were carried out in accordance with Morris A. J. et al., 1993 (J. Biol. Chem., 265:1095-1100) and Berthiaume L. et al., 1993 (J. Biol. Chem., 268:10826-10835).
# The substrate cleavage rate was determined by measuring the decrease in absorbance/minute at 340 nm. The aldolase was dialyzed overnight at 4° C. against a TEA buffer prior to use. The protein concentration was determined by spectrophotometry, using ε280=0.91 mL.mg^−1.cm^−1 as an extinction coefficient. Subunit concentration was determined on the basis of a molecular weight of 159,000 for an aldolase tetramer. • Kinetic Method:
# In the extreme situation where k−2 approaches zero, a reversible slow-binding inhibitor may resemble an irreversible one directed toward the active site. In this situation, the equation eqn.(3) is used for this type of inhibition (Meloche H. P., 1967, Biochemistry, 6:2273-2280). The semi-inactivation time of the enzyme (t1/2) is defined as a function of the mutual inhibitor concentration and is graphically represented by a straight line crossing the Y-axis at […] and crossing the X-axis at −1/Ki. • Experimental Protocol:
# Native aldolase (5 μM of subunits) is incubated in the presence of FHN-P (0.05-1 mM) in TEA buffer. Enzyme activity is analyzed as a function of time using 10 μl aliquot portions.
# Inactivation kinetics follow pseudo-first-order kinetics, and kinetic parameters Ki and k2 are determined by using the equation eqn.(3). To determine the reactivation rate, aldolase (25 μM of subunits in the TEA buffer) is incubated with 500 μM of FHN-P until reaching 90% inactivation. Excess inhibitor is removed by ultrafiltration with a PM-30 Millipore membrane. The enzyme-inhibitor complex is incubated in the TEA buffer (15 μM of subunits at final concentration) containing hexitol-P2 (10 mM). Aliquot portions (10 μl) are removed at different times to measure aldolase activity.
# Controls involve repeating the protocol without FHN-P. The reactivation process is analyzed as if it were a first-order reaction. • Monitored by UV-Visible Differential Spectroscopy.
smiles,measurement,setting,value
"O=Cc1c(O)ccc2cc(OP(=O)(O)O)ccc12 [FHN-P, 5-formyl-6-hydroxy-2-naphthylphosphate]",Residual specific activity,K229M mutant RM aldolase,ud
same,ΔA relative to 432 nm,K229M mutant RM aldolase; first (rapid) phase,95%
same,kapp,K229M mutant RM aldolase; first (rapid) phase,0.040 ± 0.0025 min⁻¹
same,ΔA relative to 432 nm,K229M mutant RM aldolase; second (slow) phase,25%
same,kapp,K229M mutant RM aldolase; second (slow) phase,0.0015 ± 0.0003 min⁻¹
same,Specific activity,"[1]; FHN-P 250 μM with Fru(1,6)P2 (1 mM), 80 min incubation",5.2 ± 0.4 Unit/mg
same,Specific activity,"[1]; FHN-P 250 μM with hexitol-P2, 80 min incubation",9.9 ± 0.5 Unit/mg
same,Specific activity,"[1]; compound 250 μM, TEA buffer pH 7.6, 80 min incubation, RM alone 12.5 ± 0.5",2.8 ± 0.3 Unit/mg
same,Ki,"[1]; dissociation constant of rapidly formed EI complex, from kapp at 0.01-1.5 mM inhibitor, eqn.(3), read-out: Ki",250 ± 100 µM
same,Ki,"[1]; estimated from the values of Table 2, read-out: global dissociation constant Ki*",0.04 ± 0.02 µM
same,k2,"[1]; inactivation constant, enzyme activity kinetics",0.07 ± 0.01 min⁻¹
